From patent US8673849B2, “Lactadherin-derived peptides as antiviral agents” (priority 2010, dated 2014)
Where a SMILES comes first, the peptide text is derived from it. Where no end group is shown, it is not given here.

Columns and labels:
[1] = test system: human rotavirus strain Wa; assay type: cell-based; details: for anti-rotavirus activity (in words): statement on Table 6
Protocol: To cultivate the rotavirus, the cell line MA-104 (monkey foetal kidney cells), obtained from the Cell Substrata Centre of the Experimental Animal Disease Institute, Brescia, Italy, was used. This cell line is cultured as a monolayer in EAGLE minimum essential medium (MEM) containing 5% heat-inactivated (56° C. for 30 minutes) bovine foetal serum (Sigma) and is maintained at 37° C. at 5% CO2.
For the in vitro infection assay, the cell line MA-104 and the human rotavirus strain Wa (TC adapted), obtained from the American Type Culture Collection (ATCC VR-2018) and propagated in MA-104 cells, were used.
To set up the assay, cells were seeded in 96-well plates and, once 80% confluence was achieved, were pre-treated for 1 hour with increasing concentrations of RGD- and/or DGE-containing peptides or their mutated counterparts and incubated at 37° C. The peptides containing the RGD or the DGE motif were used either alone or in combination. Cells were then washed with medium and infected with the pre-activated virus (5 μg/ml tripsin for 30 minutes at 37° C.) in the presence of the peptides. After a 1 hour incubation cells were washed with medium and incubated in medium containing 0.5 μg/ml tripsin and the peptides at 37° C. for 20 hours. The infected cells were visualised through an immunoperoxidase assay, using murine monoclonal antibodies specific for the capsidic protein VP6 of the rotavirus (Abcam) and the kit “UltraTech HRP Streptavidin-Biotin detection system” (Beckman Coulter). The infected cells were counted by observation under the optical microscope and the percentage of infection calculated by comparison of treated with non-treated cells.

[2] = biological target: integrin proteins on the cell surface
[3] = biological target: integrin proteins on the cell surface; remark: listed apart in the source
[4] = test system: simian rotavirus strain SA11; details: MA104 cells, dose-dependent; Graham et al.; cited from earlier work
[5] = biological target: T1, modified porcine trypsin (Sus scrofa, UniProt P00761); assay type: in vitro ADME
T1 construct: purchased Promega
Protocol: The peptide SEQ ID NO: 1 was dissolved in ultra pure H2O to obtain a final concentration of 10 mg/ml. Dilutions from 1:10 to 1:10,000 were obtained. All concentrations were tested by MALDI-TOF analyses. 0.5 μl of samples from dilutions 1:10, 1:100, 1:1,000, 1:10,000 were spotted onto a MALDI target plate and left to dry at RT. 0.5 μl of α-cyano-4-hydroxy-cinnamic acid in 30% acetonitrile, 0.1% TFA (HCCA matrix solution) were added to each sample and left to dry under vacuum. Spectra were obtained using a Bruker Ultraflex II MALDI-TOF/TOF mass spectrometer (Bruker Daltonics) in reflectron and positive ion mode. External calibration was performed using “Peptide calibration standard” from Bruker Daltonics.
To evaluate the digestibility of the SEQ ID NO: 1 peptide with trypsin, […] of a 0.2 μg/μl solution (25 mM NH4HCO3) of modified porcine trypsin (Promega) were added to 150 μl of the 10 mg/ml peptide solution ((25 mM NH4HCO3) enzyme to protein ratio 1:100). The sample was incubated at 37° C. and 0.5 μl were collected at different time of digestion: 5′, 15′, 30′, 60′ 90′ 120′. Each samples was spotted on MALDI target and spectra were collected as already described in Example 4a. In FIG. 5 the time course experiment evaluated by MALDI TOF analyses is shown.

[6] = biological target: integrin proteins on the cell surface; remark: listed apart in the source
[7] = biological target: integrin proteins on the cell surface; remark: listed apart in the source
[8] = biological target: integrin proteins on the cell surface; remark: listed apart in the source
[9] = test system: rotavirus; details: purified lactadherin; Kvistgaard et al., 2004; cited from earlier work

T1 sequence (P00761 9-231): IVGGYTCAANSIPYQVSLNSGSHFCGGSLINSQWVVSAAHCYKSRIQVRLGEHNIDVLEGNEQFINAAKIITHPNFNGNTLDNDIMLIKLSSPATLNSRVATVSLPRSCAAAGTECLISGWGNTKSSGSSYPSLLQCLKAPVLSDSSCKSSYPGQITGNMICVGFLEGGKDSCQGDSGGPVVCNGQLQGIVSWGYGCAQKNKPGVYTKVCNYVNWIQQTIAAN

## EVRGDVFP [Hu-RGD, E-V-R-G-D-V-F-P, reference compound]
[1]
  IC50: 104 µM
  IC50 (μg/ml): 95.3 µg/mL

## QNDGECHVIDDSDRGDVFTQ [SEQ ID NO: 11]
[1]
  IC50: 10.5 µM
  IC50 (μg/ml): 23.90 µg/mL
  anti-rotavirus activity (in words): maintains its anti-rotavirus activity

## Dendrimeric peptide of formula (VII): [[(HRGDVFT)2-Lys][(NDGECHV)2-Lys]]-Lys-β-Ala-NH2
[2]
  IC50, inhibition of rotavirus infection, infected cells counted by immunoperoxidase: 3.6 µM

## QNDGECHVIDDSHRGDVFQT [SEQ ID NO: 9]
[1]
  IC50: 4.17 µM
  IC50 (μg/ml): 9.469 µg/mL
  anti-rotavirus activity (in words): show antiviral activity

## Control peptide D-G-E-A (Graham et al.)
[3]
  IC50 (µM), inhibition of human rotavirus Wa infection of MA-104 cells: 311 µM
  IC50 (µg/ml), inhibition of human rotavirus Wa infection of MA-104 cells: 121 µg/mL

## C[C@H](NC(=O)[C@H](CCC(=O)O)NC(=O)CNC(=O)[C@@H](N)CC(=O)O)C(=O)O [DGEA, D-G-E-A, reference compound] (H-DGEA-OH; N-terminus and C-terminus assumed)
[4]
  inhibition of rotavirus binding to and infection of cells (in words): inhibit
[1]
  IC50: 311 µM
  IC50 (μg/ml): 121.4 µg/mL

## QNAGECHV [pAGE, Q-N-A-G-E-C-H-V, reference compound]
[1]
  IC50: 257 µM
  IC50 (μg/ml): 219.6 µg/mL

## QNDGECHV [SEQ ID NO: 3, Q-N-D-G-E-C-H-V]
[1]
  IC50: 17.3 µM
  IC50 (μg/ml): 15.6 µg/mL

## SHRGEVFT [pRGE, S-H-R-G-E-V-F-T, reference compound]
[1]
  IC50: 600 µM
  IC50 (μg/ml): 558.5 µg/mL

## SHRGDVFT [SEQ ID NO: 5, S-H-R-G-D-V-F-T]
[1]
  IC50: 111 µM
  IC50 (μg/ml): 101.5 µg/mL

## QNAGECHVIDDSHRGEVFTQ [SEQ ID NO: 10]
[1]
  IC50: > 220 µM
  IC50 (μg/ml): >500 µg/mL
  anti-rotavirus activity (in words): completely lost any anti-rotavirus activity

## SHRGDVFI [Bo-RGD, S-H-R-G-D-V-F-I, reference compound]
[1]
  IC50: 395 µM
  IC50 (μg/ml): 367.1 µg/mL

## GPRP
[4]
  inhibition of rotavirus binding to and infection of cells (in words): inhibit

## QNDGECHVIDDSHRGDVFSQ [SEQ ID NO: 8]
[1]
  IC50: 6.35 µM
  IC50 (μg/ml): 14.43 µg/mL
  anti-rotavirus activity (in words): show antiviral activity

## pRGE: S-H-R-G-E-V-F-T (RGD -> RGE mutation) (peptide)
[3]
  IC50 (µM), inhibition of human rotavirus Wa infection of MA-104 cells: 600 µM
  IC50 (µg/ml), inhibition of human rotavirus Wa infection of MA-104 cells: 558 µg/mL

## QNDGECHVIDDSHRGDVFTQ [SEQ ID NO: 1, QNDGECHVIDDSHRGDVFTQ]
[5]
  integrity of the peptide on trypsin digestion: didn't affect the integrity
[1]
  IC50: 1.72 µM
  IC50 (μg/ml): 3.9 µg/mL

## NNDGECHVIDDSHRGDVFTQ [SEQ ID NO: 7]
[1]
  IC50: 13.5 µM
  IC50 (μg/ml): 30.51 µg/mL
  anti-rotavirus activity (in words): show antiviral activity

## pAGE: Q-N-A-G-E-C-H-V (DGE -> AGE mutation) (peptide)
[3]
  IC50 (µM), inhibition of human rotavirus Wa infection of MA-104 cells: 257 µM
  IC50 (µg/ml), inhibition of human rotavirus Wa infection of MA-104 cells: 220 µg/mL

B1: Hu-RGD: E-V-R-G-D-V-F-P (peptide)
peptide: EVRGDVFP
modifications: not fully specified
[3]
  IC50 (µM), inhibition of human rotavirus Wa infection of MA-104 cells: 104 µM
  IC50 (µg/ml), inhibition of human rotavirus Wa infection of MA-104 cells: 95.3 µg/mL

B2: peptidic compound of SEQ ID NO: 5 (S-H-R-G-D-V-F-T) (peptide)
peptide: SHRGDVFT
modifications: not fully specified
[6]
  % of inhibition of rotavirus infection at 100 µg/ml (93.3 µM), one representative experiment (% of inhibition): 46.9
[3]
  IC50 (µM), inhibition of human rotavirus Wa infection of MA-104 cells, infected cells counted by immunoperoxidase: 111 µM
  IC50 (µg/ml), inhibition of human rotavirus Wa infection of MA-104 cells: 102 µg/mL

B3: peptidic compound of SEQ ID NO: 3 (Q-N-D-G-E-C-H-V) (peptide)
peptide: QNDGECHV
modifications: not fully specified
[3]
  IC50 (µM), inhibition of human rotavirus Wa infection of MA-104 cells: 17.3 µM
  IC50 (µg/ml), inhibition of human rotavirus Wa infection of MA-104 cells: 15.6 µg/mL
[7]
  % of inhibition of rotavirus infection at 100 µg/ml (96.6 µM), one representative experiment (% of inhibition): 52.7

B4: peptidic compound of SEQ ID NO: 1 (QNDGECHVIDDSHRGDVFTQ) (peptide)
peptide: QNDGECHVIDDSHRGDVFTQ
modifications: not fully specified
[8]
  % of inhibition of rotavirus infection at 100 µg/ml (36.6 µM), one representative experiment (% of inhibition): 61
[3]
  IC50 (µM), inhibition of human rotavirus Wa infection of MA-104 cells: 1.72 µM
  IC50 (µg/ml), inhibition of human rotavirus Wa infection of MA-104 cells: 3.9 µg/mL

B5: bovine lactadherin: bovine lactadherin, glycoprotein of milk fat globule membranes, 427 amino acid residues (protein, UniProt Q95114 19-427, looked up)
Lactadherin: ASGDFCDSSLCLHGGTCLLNEDRTPPFYCLCPEGFTGLLCNETEHGPCFPNPCHNDAECQVTDDSHRGDVFIQYICKCPLGYVGIHCETTCTSPLGMQTGAIADSQISASSMHLGFMGLQRWAPELARLHQTGIVNAWTSGNYDKNPWIQVNLMRKMWVTGVVTQGASRAGSAEYLKTFKVAYSTDGRQFQFIQVAGRSGDKIFIGNVNNSGLKINLFDTPLETQYVRLVPIICHRGCTLRFELLGCELNGCTEPLGLKDNTIPNKQITASSYYKTWGLSAFSWFPYYARLDNQGKFNAWTAQTNSASEWLQIDLGSQKRVTGIITQGARDFGHIQYVAAYRVAYGDDGVTWTEYKDPGASESKIFPGNMDNNSHKKNIFETPFQARFVRIQPVAWHNRITLRVELLGC
[9]
  activity against rotavirus infection (in words): does not possess this activity

B6: human lactadherin: purified human lactadherin, glycoprotein of milk fat globule membranes, 387 amino acids (protein, UniProt Q08431 24-387, looked up)
Lactadherin: LDICSKNPCHNGGLCEEISQEVRGDVFPSYTCTCLKGYAGNHCETKCVEPLGLENGNIANSQIAASSVRVTFLGLQHWVPELARLNRAGMVNAWTPSSNDDNPWIQVNLLRRMWVTGVVTQGASRLASHEYLKAFKVAYSLNGHEFDFIHDVNKKHKEFVGNWNKNAVHVNLFETPVEAQYVRLYPTSCHTACTLRFELLGCELNGCANPLGLKNNSIPDKQITASSSYKTWGLHLFSWNPSYARLDKQGNFNAWVAGSYGNDQWLQVDLGSSKEVTGIITQGARNFGSVQFVASYKVAYSNDSANWTEYQDPRTGSSKIFPGNWDNHSHKKNLFETPILARYVRILPVAWHNRIALRLELLGC
[9]
  activity against rotavirus infection (in words): active against rotavirus infection

B7: Bo-RGD: S-H-R-G-D-V-F-I (peptide)
peptide: SHRGDVFI
modifications: not fully specified
[3]
  IC50 (µM), inhibition of human rotavirus Wa infection of MA-104 cells: 395 µM
  IC50 (µg/ml), inhibition of human rotavirus Wa infection of MA-104 cells: 367 µg/mL
